Experimental data as given in patent US20020165213A1, “Estrogen induced neural stem cell increase” (Neurostasis, Inc., priority 2001, published 2002).

How the values were obtained:
[1] = test system: proliferating cells in the dentate gyrus; conditions: literature (Alonso, 2000; Tanapat et al., 1999); cited from earlier work
[2] = test system: SVZ proliferating cells; conditions: literature (Alonso, 2000; Tanapat et al., 1999); cited from earlier work
[3] = test system: embryonic neural stem cells (embryonic day 14); assay: Estradiol on embryonic neural stem cell cultures: secondary spheres from one single sphere; type: cell-based
Method: (§1) To determine if estradiol, the main form of estrogen, increases the number of neural stem cells, the effect of estradiol on neural stem cell cultures was examined. Primary neural stem cells (from embryonic day 14 or adult subventricular zone) were cultured in EGF for seven days to make neurospheres. These primary neurospheres were then dissociated and re-plated in EGF to make pass 1 neurospheres. Pass 1 neurospheres, either embryonic or adult, were dissociated and plated (50,000 cell/ml) in culture medium containing EGF alone or EGF+4 nM estradiol. The culture was allowed to progress for seven days. To determine the number of neural stem cells in each culture, single spheres (15-20 per experiment) were dissociated and plated in single wells of a 96 well plate in culture medium containing EGF only. After 7 days, the number of spheres which came from one single sphere was counted. The following data represent the results from 15-20 replicates.

[4] = test system: adult neural stem cells (adult subventricular zone); assay: Estradiol on adult neural stem cell cultures: secondary spheres from one single sphere; type: cell-based
Method: as §1

[5] = EGF+4 nM estradiol versus EGF alone

| Molecule | cell proliferation in the dentate gyrus [1] | cell proliferation / mitotic activity in the SVZ [2] | increase in the number of embryonic neural stem cells in response to estradiol [3, 5] [%] | # secondary spheres from one single sphere ([3]; Embryo pass 1 neurospheres, EGF+4 nM estradiol, seven days, single spheres re-plated in EGF only, counted after 7 days, 15-20 replicates) | # secondary spheres from one single sphere ([4]; Adult pass 1 neurospheres, EGF+4 nM estradiol, seven days, single spheres re-plated in EGF only, counted after 7 days, 15-20 replicates) | increase in the number of adult neural stem cells in response to estradiol [4, 5] [%] |
| --- | --- | --- | --- | --- | --- | --- |
| C[C@]12C[C@H](O)[C@H]3[C@@H](CCC4=CC(=O)CC[C@@]43C)[C@@H]1CC[C@@H]2C(=O)CO [corticosterone] | dramatically decreases cell proliferation | no effect |  |  |  |  |
| C[C@]12CC[C@@H]3c4ccc(O)cc4CC[C@H]3[C@@H]1CC[C@@H]2O [estradiol] |  |  | 150 | 104±15 | 78±11 | 35 |
| Estrogen | stimulate proliferation | no mitotic activity |  |  |  |  |
